From the NIST ThermoML archive (doi:10.1016/j.jct.2008.01.018)
± gives the expanded uncertainty stated by the source.

Experiment: refractive index (Na D-line) (dimensionless); mn = molality of the nth substance listed, in mol/kg
Conditions: 298.15 K, 101 kPa, Liquid, Standard Abbe refractometry

O=P([O-])(O)O.[Na+] [sodium dihydrogen phosphate] + O
refractive index (m1 = 0.0207): 1.3331 ± 0.0027
refractive index (m1 = 0.0415): 1.3334 ± 0.0027
refractive index (m1 = 0.0697): 1.3338 ± 0.0027
refractive index (m1 = 0.1051): 1.3342 ± 0.0027
refractive index (m1 = 0.1397): 1.3351 ± 0.0027
refractive index (m1 = 0.1901): 1.3357 ± 0.0027
refractive index (m1 = 0.2357): 1.3363 ± 0.0027
refractive index (m1 = 0.2947): 1.3373 ± 0.0027
refractive index (m1 = 0.3516): 1.3382 ± 0.0027
refractive index (m1 = 0.433): 1.3393 ± 0.0027
refractive index (m1 = 0.5113): 1.3405 ± 0.0027
refractive index (m1 = 0.5842): 1.3416 ± 0.0027
refractive index (m1 = 0.653): 1.3425 ± 0.0027
refractive index (m1 = 0.6999): 1.3432 ± 0.0027
refractive index (m1 = 0.7919): 1.3442 ± 0.0027
refractive index (m1 = 0.9206): 1.3459 ± 0.0027
refractive index (m1 = 1.175): 1.3491 ± 0.0027
refractive index (m1 = 1.18): 1.3491 ± 0.0027
refractive index (m1 = 1.447): 1.3524 ± 0.0027
refractive index (m1 = 1.794): 1.3565 ± 0.0027
refractive index (m1 = 2.079): 1.3597 ± 0.0027
refractive index (m1 = 2.396): 1.3629 ± 0.0027
refractive index (m1 = 2.398): 1.3627 ± 0.0027
